The values that follow are results of earlier work, collected in US20200245666A1, “CANNABINOID EMULSIONS, BEVERAGES AND FOODS” (Lighthouse Strategies, LLC, priority 2019, published 2020).

The conditions of this data set: smoking a 3.55% THC cigarette.

With `CCCCCc1cc(O)c2c(c1)OC(C)(C)[C@@H]1CCC(C)=C[C@@H]21` [THC, Δ9-tetrahydrocannabinol], the peak plasma level was 152 ± 86.3 ng/mL and the “time of peak plasma level after inhalation” value was “approximately 10 minutes”.
